Source: patent US20180344715A1, “WNT/BETA-CATENIN SIGNAL TRANSDUCTION INHIBITORS AND THEIR USE IN TREATMENT OR PREVENTION OF DISEASES AND CONDITIONS LINKED WITH SAID TRANSDUCTION” (BERGEN TEKNOLOGIOVERFORING AS, priority 2015, published 2018)

Biological target: T1, SHPRH (Homo sapiens, UniProt Q149N8)
T1 construct: endogenous in cells; host or cells: SW480
Test: SHPRH stability and ubiquitination in SW480 cells (cycloheximide, MG132)
Format: cell-based
Conditions: SW480, 5 μM
From the text: 2D-DIGE images of the DARTS samples. […] Location of β-catenin binding motifs of indicated genes (left) and agarose gel analysis of ChIP-PCR reactions with indicated antibodies (right). d. Western blots of the CoIP samples of SW480 cells using indicated antibodies. e. […] WT, wild type; FL, full length. g. Overexpression of SHPRH in SW480 cells increases the ubiquitination level of β-catenin. h. […] Summary of the mechanisms by which axitinib blocks Wnt/β-catenin signaling.
Culture cells were lysed in RIPA buffer (50 mM Tris-HCl, pH 7.4, 150 mM NaCl, 1% NP-40, 0.5% sodium deoxycholate, 0.1% SDS, 1 mM EDTA) containing freshly added protease inhibitors (Roche, 11836153001). Protein lysates were resolved in Novex 10% BisTris MiniGels (Life technologies, NP0303BOX) and transferred onto PVDF membranes with Pierce 1-Step Transfer Buffer (Thermo Fisher Scientific, 84731). […] Proteins were visualized and captured by a ChemiDOC XRS system and Quantity One software (Bio-Rad Laboratories).
Cells were harvested and re-suspended with 100 μl ice cold TBS (50 mM Tris-HCL pH 8.0, 150 mM NaCl) containing 2 μM N-Ethylmaleimide crystalline that was supplemented to all the following buffers. […] Following addition of 80 μl 2% SDS sample buffer containing 10 mM DTT (Sigma, D9779), the beads were boiled at 98° C. for 5 minutes and collected with Magnet, the supernatant was analyzed by Western blotting.

T1 sequence (Q149N8 whole entry): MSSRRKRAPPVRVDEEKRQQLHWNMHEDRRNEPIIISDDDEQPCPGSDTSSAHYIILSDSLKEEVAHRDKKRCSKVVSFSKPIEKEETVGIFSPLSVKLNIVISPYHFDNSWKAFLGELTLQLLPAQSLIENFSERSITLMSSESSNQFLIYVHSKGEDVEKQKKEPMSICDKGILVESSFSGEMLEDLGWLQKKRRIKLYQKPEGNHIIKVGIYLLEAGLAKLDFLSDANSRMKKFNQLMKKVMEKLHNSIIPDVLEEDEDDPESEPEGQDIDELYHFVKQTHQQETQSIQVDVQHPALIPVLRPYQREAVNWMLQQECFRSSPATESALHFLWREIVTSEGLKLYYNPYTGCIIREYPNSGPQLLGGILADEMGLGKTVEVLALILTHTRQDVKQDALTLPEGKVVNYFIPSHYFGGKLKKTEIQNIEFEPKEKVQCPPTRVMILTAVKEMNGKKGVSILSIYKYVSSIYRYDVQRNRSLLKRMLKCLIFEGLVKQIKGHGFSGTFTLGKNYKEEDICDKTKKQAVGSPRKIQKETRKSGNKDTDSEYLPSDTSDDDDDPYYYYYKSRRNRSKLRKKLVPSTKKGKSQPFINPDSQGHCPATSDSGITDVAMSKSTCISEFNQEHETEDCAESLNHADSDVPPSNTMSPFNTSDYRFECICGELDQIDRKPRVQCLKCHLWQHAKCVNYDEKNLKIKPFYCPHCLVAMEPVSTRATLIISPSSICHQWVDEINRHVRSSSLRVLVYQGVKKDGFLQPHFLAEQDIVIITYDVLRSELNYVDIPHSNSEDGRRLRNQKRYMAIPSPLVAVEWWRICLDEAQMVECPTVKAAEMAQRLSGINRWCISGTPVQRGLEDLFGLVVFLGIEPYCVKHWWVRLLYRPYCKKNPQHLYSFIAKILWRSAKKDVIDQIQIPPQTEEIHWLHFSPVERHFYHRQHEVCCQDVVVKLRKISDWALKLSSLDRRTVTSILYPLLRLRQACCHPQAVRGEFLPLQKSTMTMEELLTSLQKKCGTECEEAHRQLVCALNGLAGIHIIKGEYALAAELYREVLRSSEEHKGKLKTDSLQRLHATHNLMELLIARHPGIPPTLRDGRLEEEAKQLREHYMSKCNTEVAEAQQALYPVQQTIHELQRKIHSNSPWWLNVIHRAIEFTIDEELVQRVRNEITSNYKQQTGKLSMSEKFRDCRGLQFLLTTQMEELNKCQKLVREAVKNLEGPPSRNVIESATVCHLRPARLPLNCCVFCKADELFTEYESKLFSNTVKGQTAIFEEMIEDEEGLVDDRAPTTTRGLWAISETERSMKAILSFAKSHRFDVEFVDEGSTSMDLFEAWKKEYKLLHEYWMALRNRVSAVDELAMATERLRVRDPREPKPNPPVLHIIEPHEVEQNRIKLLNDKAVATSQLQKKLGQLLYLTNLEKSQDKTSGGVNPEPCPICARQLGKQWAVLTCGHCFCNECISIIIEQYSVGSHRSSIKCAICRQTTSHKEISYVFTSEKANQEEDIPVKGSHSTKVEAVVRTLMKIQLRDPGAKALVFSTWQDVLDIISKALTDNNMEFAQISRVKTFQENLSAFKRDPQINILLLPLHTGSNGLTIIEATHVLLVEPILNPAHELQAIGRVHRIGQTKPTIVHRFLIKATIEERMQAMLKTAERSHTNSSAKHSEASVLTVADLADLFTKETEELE

Structure (SMILES): CNC(=O)c1ccccc1Sc1ccc2c(/C=C/c3ccccn3)n[nH]c2c1 [axitinib, N-Methyl-2-[[3-[(E)-2-pyridin-2-ylethenyl]-1H-indazol-6-yl]sulfanyl]benzamide]
- stability of SHPRH (6 hours, with cycloheximide): increased
- ubiquitination level of SHPRH (MG132, 6 hours): decreased
